Where two headings read alike, the source gives them in different places.
Experiments:
men and women with OAB = assay: Phase 2b study in OAB, efficacy (voiding diary); format: in vivo, human
From the text: Part 2 was designed to continue to assess the safety and efficacy of concomitant dosing. […] Subjects in both Part 1 and Part 2 had the option of enrolling in a 1-year extension. Participants were required to keep a voiding diary, recording the occurrence of each strong urge, total incontinence, and urge incontinence episode. Efficacy data for Part 1 and Part 2 are summarized herein.
The total number of urgency incontinence episodes must have exceeded the total number of stress incontinence episodes for all subjects.

[1] = drug interaction studies: effect of co-administered medication on vibegron PK; format: in vivo, human
From the text: However, these interactions are not expected to be clinically significant.

[2] = effect of food on oral absorption (single and multiple dose); format: in vivo, human; details: for mean AUC0-24 with food compared to fasted state / mean Cmax with food compared to fasted state: 150 mg multiple oral doses, middle-aged and elderly females
CYP3A4 = CYP3A4 (Homo sapiens, UniProt P08684); assay: in vitro metabolism by CYPs; format: in vitro ADME
[3] = human, in vivo
[4] = tested on: patients with overactive bladder
From the text: A placebo group was included in the main study, and a group that received tolterodine monotherapy was included in the main study and in the extension.

[5] = dose-Cmax and dose-AUC models / log-log regression and simulations from Phase 1 data; design: species or system human
Description: In order to contextualize PK parameters of a 75 mg dose, dose-Cmax and dose-AUC models were created using data from Phase 1 studies.

[6] = multiple rising dose Phase 1 pharmacokinetics in healthy subjects; format: in vivo, human; details: for concentration at 14 days: plasma, oral, read-out: Ctrough
[7] = vibegron 50 mg once daily, OAB Wet subjects
[8] = vibegron 50 mg once daily, Part 1
[9] = vibegron 100 mg once daily, OAB Wet subjects
[10] = multiple doses of 240 mg or 180 mg diltiazem
[11] = 150 mg multiple doses, middle-aged females, Day 14
[12] = single 50 mg, Japanese young males
[13] = single 50 mg, non-Japanese young males

Chain of CYP3A4 (P08684 whole entry): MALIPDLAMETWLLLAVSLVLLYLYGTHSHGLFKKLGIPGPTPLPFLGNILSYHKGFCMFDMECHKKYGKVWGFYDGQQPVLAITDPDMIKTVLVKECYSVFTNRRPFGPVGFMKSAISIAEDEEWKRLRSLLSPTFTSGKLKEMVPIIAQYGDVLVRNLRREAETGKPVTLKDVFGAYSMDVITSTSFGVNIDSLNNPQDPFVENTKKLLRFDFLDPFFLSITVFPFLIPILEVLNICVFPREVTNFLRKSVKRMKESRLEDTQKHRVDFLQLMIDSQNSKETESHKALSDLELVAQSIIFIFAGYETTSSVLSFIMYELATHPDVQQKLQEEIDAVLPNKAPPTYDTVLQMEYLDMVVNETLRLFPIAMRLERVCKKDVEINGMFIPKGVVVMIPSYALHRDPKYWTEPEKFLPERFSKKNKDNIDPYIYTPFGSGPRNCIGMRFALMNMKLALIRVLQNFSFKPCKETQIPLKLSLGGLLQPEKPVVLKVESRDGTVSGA

With `O=C(Nc1ccc(C[C@@H]2CC[C@H]([C@H](O)c3ccccc3)N2)cc1)[C@@H]1CCc2nccc(=O)n21` [vibegron, (6S)—N-[4-[[(2S,5R)-5-[(R)-hydroxy(phenyl)methyl]pyrrolidin-2-yl]methyl]phenyl]-4-oxo-7,8-dihydro-6H-pyrrolo[1,2-a]pyrimidine-6-carboxamide] the “Total Incontinence Episodes, difference from placebo Week 8, LS means” value (men and women with OAB; [7]) was −0.60, the “Urgency Incontinence Episodes, difference from placebo Week 8, LS means” value (men and women with OAB; [7]) was −0.72 and the “Micturitions, difference from placebo Week 8, LS means” value (men and women with OAB; [8]) was −0.64. For the same compound, the “Urgency Episodes, difference from placebo Week 8, LS means” value (men and women with OAB; [8]) was −0.76, the “average number of daily micturitions compared to placebo at Week 8” value (men and women with OAB; vibegron 100 mg and 50 mg treatment groups, Part 1) was “statistically significant decreases” and the “Total Incontinence Episodes, daily number, Week 8 mean” value (men and women with OAB; [9]) was 1.12. The “Total Incontinence Episodes, difference from placebo Week 8, LS means” value (men and women with OAB; [9]) was −0.58, the “Urgency Incontinence Episodes, difference from placebo Week 8, LS means” value (men and women with OAB; [9]) was −0.71 and the “Micturitions, difference from placebo Week 8, LS means” value (men and women with OAB; vibegron 100 mg once daily, Part 1) was −0.91. For the same compound, the “Micturitions, difference in LS means 100 mg − 50 mg” value (men and women with OAB; week 8) was −0.27, the “Total incontinence, difference in LS means 100 mg − 50 mg” value (men and women with OAB; week 8) was 0.02 and the “Urgency Episodes, difference in LS means 100 mg − 50 mg” value (men and women with OAB; week 8) was −0.48. For the same compound, the “Urgency incontinence, difference in LS means 100 mg − 50 mg” value (men and women with OAB; week 8) was 0.01, the “effect of Tolterodine ER 4 mg on the pharmacokinetics of vibegron” value ([1]; in vivo) was “no effect” and the “GM vibegron AUC0-inf increase” value [1, 10] was 63%. The “GM vibegron Cmax increase” value [1, 10] was 68%, the “reduction in mean AUC0-24hr with food vs fasted” value [2, 11] was 20% and the “reduction in mean Cmax with food vs fasted” value [2, 11] was 47%. For the same compound, the “mean AUC0-24 with food compared to fasted state” value ([2]; Day 1) was ~42%, the “mean Cmax with food compared to fasted state” value ([2]; Day 1) was 59% and the “mean AUC0-24 with food compared to fasted state” value ([2]; Day 14) was ~20%. For the same compound, the “mean Cmax with food compared to fasted state” value ([2]; Day 14) was 43%, the Ctrough ([2]; multiple dose 150 mg, day 14, Non-Japanese middle-aged females, Fasted) was 62.7 ± 12.4 ng/mL and the “reduction in AUC0-inf with standard Japanese breakfast” value [2, 12] was 37%. The “reduction in Cmax with standard Japanese breakfast” value [2, 12] was 52%, the “delay in Tmax with high-fat meal vs fasted” value [2, 13] was ~1 h and the “reduction in AUC0-inf with high-fat meal vs fasted” value [2, 13] was 46%. For the same compound, the “reduction in Cmax with high-fat meal vs fasted” value [2, 13] was 67%, the “CYP responsible for in vitro metabolism” value (CYP3A4) was “CYP3A4 is the predominant CYP” and the “dose recovered in feces” value [3] was “approximately 59%”. The “dose recovered in urine” value [3] was ~20%, the “Accidental overdose, %” value ([4]; Vibegron 3 mg, N = 144, first 12 weeks) was “(2.1) %” and the “Accidental overdose, %” value ([4]; Vibegron 15 mg, N = 134, first 12 weeks) was “(4.5) %”. For the same compound, the “Accidental overdose, %” value ([4]; Vibegron 50 mg, N = 148, first 12 weeks) was “(2.7) %”, the “Accidental overdose, %” value ([4]; Vibegron 100 mg, N = 261, first 12 weeks) was “(4.2) %” and the frequency of injuries ([4]; human, in vivo) was 0.9%. For the same compound, the “AUC of 75 mg lower than 200 mg single dose” value [5] was ~2 fold, the “AUC of 75 mg lower than 400 mg single dose” value [5] was ~6 fold and the “Cmax of 75 mg lower than 200 mg single dose” value [5] was “approximately 3.3 fold”. For the same compound, the “Cmax of 75 mg lower than 400 mg single dose” value [5] was ~9.2 fold, the “increase in Cmax on increase in dose from 50 to 100 mg” value [5] was ~3 fold and the “reduction in Cmax on decreasing the dose from 100 mg to 75 mg” value [5] was ~40%. The “fraction of dose excreted at steady state (fe0-24hr, ss)” value ([6]; 100 mg, elderly subjects) was ~17%, the “fraction of dose excreted at steady state (fe0-24hr, ss)” value ([6]; 100 and 150 mg, young males) was ~14% and the “steady state exposure (AUC0-24) higher in elderly Japanese than elderly non-Japanese” value ([6]; Day 14) was 35%. For the same compound, the “steady state Cmax in elderly compared to young males” value ([6]; QD doses of 100 mg) was ~1.3 fold, the concentration at 14 days ([6]; both sexes, human, 100 mg, multiple dose 100 mg, after 14 days, Elderly Male and Female) was 54.2 ng/mL and the “Cmax higher in elderly and females than healthy young males” value ([6]; human, in vivo) was 50-70%. The “Cmax increased in elderly Japanese compared to elderly non-Japanese” value ([6]; human, in vivo) was 82%, the “steady state AUC in middle-aged females compared to middle-aged males” value ([6]; human, in vivo) was ~1.5 fold and the “steady state exposures higher in Japanese than non-Japanese young males” value ([6]; human, in vivo) was ~30%. It also gave a concentration at 14 days ([6]; male, human, 50 mg, multiple dose 50 mg, after 14 days, healthy young males) of 15.2 ng/mL, a concentration at 14 days ([6]; male, human, 100 mg, multiple dose 100 mg, after 14 days, healthy young males, Japanese) of 41 ± 11 ng/mL and a concentration at 14 days ([6]; male, human, 100 mg, multiple dose 100 mg, after 14 days, healthy young males) of 31.9 ng/mL. The “t1/2, harmonic mean ± pseudo SD” value ([6]; multiple dose 150 mg, after 14 days, healthy young males) was 79.2 ± 9.2 h, the AUC0-24 ([6]; multiple dose 200 mg, after 14 days, healthy young males) was 3200 ± 1120 ng·h/mL and the “t1/2, harmonic mean ± pseudo SD” value ([6]; multiple dose 400 mg, after 14 days, healthy young males) was 58.9 ± 5.9 h. For the same compound, the “time to steady state concentrations” value ([6]; once daily dosing) was ≤ 7 days and the “exposures (AUC) higher in females compared with males” value ([6]; regardless of age) was 50%.
